Results published in the supplement of paper PMC10307832.

How the values were obtained:
Assay in all cases: relative viability (nuclei count vs DMSO), 5 days (fraction); higher = more cells survive
[1] = test system: HCC-15
Outline: (§1)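 After 5 days of treatment, lung cancer cells in 1536-well plates were fixed and stained in a single step (final 0.05% Triton X-100, 1% formaldehyde, 1 ug/ml Hoechst) and their nuclei counted on 4× images. Treatment had been applied by pin tool the day after seeding as one drug alone or as a fixed anchor-drug dose with five library-drug doses (not always all listed) in √10 steps. Relative viability is the nuclei count of treated wells divided by that of vehicle wells, and values are medians of duplicate plates.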

[2] = test system: NCI-H727
Outline: as §1

[3] = test system: NCI-H322M
Outline: as §1

[4] = test system: NCI-H838
Outline: as §1

[5] = test system: NCI-H460
Outline: as §1

[6] = test system: BEN
Outline: as §1

[7] = test system: NCI-H1651
Outline: as §1

[8] = test system: NCI-H358
Outline: as §1

[9] = test system: EMC-BAC-2
Outline: as §1

[10] = test system: LK-2
Outline: as §1

[11] = test system: NCI-H522
Outline: as §1

[12] = test system: SW 900
Outline: as §1

[13] = test system: NCI-H2023
Outline: as §1

[14] = test system: PC-3 [JPC-3]
Outline: as §1

[15] = test system: ABC-1
Outline: as §1

[16] = test system: COR-L 105
Outline: as §1

[17] = test system: EKVX
Outline: as §1

[18] = test system: LU99A
Outline: as §1

[19] = test system: HCC-44
Outline: as §1

[20] = test system: NCI-H520
Outline: as §1

[21] = test system: 201T
Outline: as §1

With `Cc1cn(-c2cc(NC(=O)c3ccc(C)c(Nc4nccc(-c5cccnc5)n4)c3)cc(C(F)(F)F)c2)cn1` [Nilotinib] + Nc1ncn([C@H]2C[C@H](O)[C@@H](CO)O2)c(=O)n1 [Decitabine] (partner 2 µM) the relative viability ([1]; first compound 0.001 µM) was 0.569, the relative viability ([1]; first compound 0.003162 µM) was 0.77 and the relative viability ([1]; first compound 0.01 µM) was 0.718. It also gave a relative viability ([1]; first compound 0.03162 µM) of 0.481, a relative viability ([1]; first compound 0.1 µM) of 0.309 and a relative viability ([2]; first compound 0.001 µM) of 0.67. The relative viability ([2]; first compound 0.003162 µM) was 0.818, the relative viability ([2]; first compound 0.01 µM) was 0.825 and the relative viability ([2]; first compound 0.03162 µM) was 0.715. For the same compound, the relative viability ([2]; first compound 0.1 µM) was 0.606, the relative viability ([3]; first compound 0.001 µM) was 0.724 and the relative viability ([3]; first compound 0.003162 µM) was 0.786. The relative viability ([3]; first compound 0.01 µM) was 0.673, the relative viability ([3]; first compound 0.03162 µM) was 0.654 and the relative viability ([3]; first compound 0.1 µM) was 0.898. The relative viability ([4]; first compound 0.001 µM) was 0.44, the relative viability ([4]; first compound 0.003162 µM) was 0.532 and the relative viability ([4]; first compound 0.01 µM) was 0.522. It also gave a relative viability ([4]; first compound 0.03162 µM) of 0.489, a relative viability ([4]; first compound 0.1 µM) of 0.637 and a relative viability ([5]; first compound 0.001 µM) of 0.443. It also gave a relative viability ([5]; first compound 0.003162 µM) of 0.648, a relative viability ([5]; first compound 0.01 µM) of 0.56 and a relative viability ([5]; first compound 0.03162 µM) of 0.325. The relative viability ([5]; first compound 0.1 µM) was 0.306, the relative viability ([6]; first compound 0.001 µM) was 0.787 and the relative viability ([6]; first compound 0.003162 µM) was 0.727. It also gave a relative viability ([6]; first compound 0.01 µM) of 0.622, a relative viability ([6]; first compound 0.03162 µM) of 0.801 and a relative viability ([6]; first compound 0.1 µM) of 0.516. The relative viability ([7]; first compound 0.001 µM) was 0.572, the relative viability ([7]; first compound 0.003162 µM) was 0.734 and the relative viability ([7]; first compound 0.01 µM) was 0.689. The relative viability ([7]; first compound 0.03162 µM) was 0.535, the relative viability ([7]; first compound 0.1 µM) was 0.288 and the relative viability ([8]; first compound 0.001 µM) was 0.214. It also gave a relative viability ([8]; first compound 0.003162 µM) of 0.264, a relative viability ([8]; first compound 0.01 µM) of 0.229 and a relative viability ([8]; first compound 0.03162 µM) of 0.195. It also gave a relative viability ([8]; first compound 0.1 µM) of 0.15, a relative viability ([9]; first compound 0.001 µM) of 0.974 and a relative viability ([9]; first compound 0.003162 µM) of 0.996. The relative viability ([9]; first compound 0.01 µM) was 1.02, the relative viability ([9]; first compound 0.03162 µM) was 0.94 and the relative viability ([9]; first compound 0.1 µM) was 1. For the same compound, the relative viability ([10]; first compound 0.001 µM) was 0.327, the relative viability ([10]; first compound 0.003162 µM) was 0.338 and the relative viability ([10]; first compound 0.01 µM) was 0.252. It also gave a relative viability ([10]; first compound 0.03162 µM) of 0.236, a relative viability ([10]; first compound 0.1 µM) of 0.26 and a relative viability ([11]; first compound 0.01 µM) of 0.667. The relative viability ([11]; first compound 0.03162 µM) was 0.699, the relative viability ([11]; first compound 0.1 µM) was 0.539 and the relative viability ([12]; first compound 0.003162 µM) was 0.579. The relative viability ([12]; first compound 0.01 µM) was 0.724, the relative viability ([12]; first compound 0.03162 µM) was 0.743 and the relative viability ([12]; first compound 0.1 µM) was 0.577. It also gave a relative viability ([13]; first compound 0.001 µM) of 0.245, a relative viability ([13]; first compound 0.003162 µM) of 0.296 and a relative viability ([13]; first compound 0.01 µM) of 0.334. The relative viability ([13]; first compound 0.03162 µM) was 0.271, the relative viability ([13]; first compound 0.1 µM) was 0.298 and the relative viability ([14]; first compound 0.001 µM) was 0.873. The relative viability ([14]; first compound 0.01 µM) was 1, the relative viability ([14]; first compound 0.03162 µM) was 0.897 and the relative viability ([14]; first compound 0.1 µM) was 1.01. It also gave a relative viability ([15]; first compound 0.001 µM) of 0.987, a relative viability ([15]; first compound 0.003162 µM) of 0.946 and a relative viability ([15]; first compound 0.01 µM) of 1.05. It also gave a relative viability ([15]; first compound 0.03162 µM) of 0.978, a relative viability ([15]; first compound 0.1 µM) of 0.96 and a relative viability ([16]; first compound 0.001 µM) of 0.735. It also gave a relative viability ([16]; first compound 0.003162 µM) of 0.734, a relative viability ([16]; first compound 0.01 µM) of 0.743 and a relative viability ([16]; first compound 0.03162 µM) of 0.732. The relative viability ([16]; first compound 0.1 µM) was 0.751, the relative viability ([17]; first compound 0.001 µM) was 0.307 and the relative viability ([17]; first compound 0.003162 µM) was 0.413. For the same compound, the relative viability ([17]; first compound 0.01 µM) was 0.394, the relative viability ([17]; first compound 0.03162 µM) was 0.305 and the relative viability ([17]; first compound 0.1 µM) was 0.648. For the same compound, the relative viability ([18]; first compound 0.001 µM) was 0.909, the relative viability ([18]; first compound 0.003162 µM) was 1.11 and the relative viability ([18]; first compound 0.01 µM) was 0.905. For the same compound, the relative viability ([18]; first compound 0.03162 µM) was 0.999, the relative viability ([18]; first compound 0.1 µM) was 0.436 and the relative viability ([19]; first compound 0.001 µM) was 0.922. The relative viability ([19]; first compound 0.003162 µM) was 0.945, the relative viability ([19]; first compound 0.01 µM) was 0.969 and the relative viability ([19]; first compound 0.1 µM) was 0.918. It also gave a relative viability ([20]; first compound 0.001 µM) of 0.473, a relative viability ([20]; first compound 0.003162 µM) of 0.653 and a relative viability ([20]; first compound 0.01 µM) of 0.613. It also gave a relative viability ([20]; first compound 0.03162 µM) of 0.564, a relative viability ([20]; first compound 0.1 µM) of 0.649 and a relative viability ([21]; first compound 0.001 µM) of 0.851. For the same compound, the relative viability ([21]; first compound 0.003162 µM) was 0.973, the relative viability ([21]; first compound 0.01 µM) was 0.944 and the relative viability ([21]; first compound 0.03162 µM) was 1.01. The relative viability ([21]; first compound 0.1 µM) was 0.814.
